From US20090143392A1, “Methods of Treating Obesity and Metabolic Disorders” (ELBION GMBH, priority 2007, published 2009)
pIC50: −log10 of the molar value.

How the values were obtained:
PDE10 from pig striatum = target: T1, PDE10 from pig striatum (Sus scrofa, UniProt A0A287B941); assay: Inhibition of PDE10 from pig striatum; type: biochemical; conditions: 0.1 μM [3H]-cAMP, 37° C., 30 minutes
T1 construct: "Striatum from male hybrid pigs (150 kg)"
Protocol: Phosphodiesterase isoenzyme 10 (PDE10) activity was determined in preparations of human recombinant PDE10A and PDE10 from pig striatum, respectively.
Striatum from male hybrid pigs (150 kg) were collected and frozen at −70° C.
At the day of preparation 0.5 g striatum was homogenised in 10 ml 50 mM Tris/Mg-buffer at 4° C. and centrifuged for one hour at 100000 g.
Nonspecific activity was tested without the enzyme. […] For determination of IC50 values the Hill-plot, 2-parameter-model, was used.
Phosphodiesterase isoenzyme 10 (PDE10) activity was determined in preparations of rat, pig and guinea pig striatum respectively. Striatum from male Wistar rats (180-200 g), male hybrid pigs (150 kg) and male guinea pigs (CRL (HA), 500 g) respectively were collected and frozen at −70° C.
For the enzymatic testing of PDE10 activity 0.5 g of the isolated and frozen striatum was homogenised in 10 ml 50 mM Tris/Mg-buffer at 4° C. and centrifuged for one hour at 100000 g.

MK-801-induced psychosis = assay: MK-801-induced psychosis: hyperactivity and stereotyped sniffing; type: in vivo; conditions: p.o.; female Wistar rats; MK-801 0.1 mg/kg i.p. 10 min before test; compound 30 min prior; recorded 1 h
Protocol: Female Wistar rats (Crl: (WI) BR, Charles River, Sulzfeld, Germany) weighing 150 to 180 g were used for the MK-801-induced psychosis. Animals were housed under standard conditions in groups of five on a 12 h light/dark cycle (light on at 0600 h) with ad libitum access to food (Pellets, ssniff M/R 15, Spezialdiät GmbH, Soest/Westfalen) and water.
MK-801 (dizocilpine, MW 337.37) was obtained by Tocris, distributed by Biotrend Chemikalien GmbH, Köln, Germany.
Hydroxyethylcellulose was solved in distilled water.
MK-801 was solved in saline so that an administration volume of 0.5 ml/100 g was reached. The suspensions and solution were placed on a magnetic stirrer before and during dosing procedures.
The behaviour induced by the NMDA antagonist MK-801 is generally accepted as a rat model of psychosis. MK-801 induces stereotyped sniffing, hyperactivity and ataxia in rats after intraperitoneal administration.
Locomotor activity of the rats was recorded by the MotiTest Apparatus (TSE, Bad Homburg, Germany). The test area consisted of a squared arena (45×45 cm) with protective plexiglass walls (20 cm of height) where rats could freely move. Horizontal movements were recorded by 32 infrared photocells arranged along the bottom of each wall of the arena. The activity [sec] was measured by the computer program “ActiMot” (TSE, Bad Homburg, Germany).
Stereotyped sniffing was scored by the experimenter every five minutes for one hour (12 intervals) according to the method described by Andine et al. (1999). The scores of the 12 intervals were summed up at the end of the recording time.
The day of experiment the female rats were placed in the laboratory and received the test compound or vehicle at the appropriate time prior to test. MK-801 0.1 mg/kg was intraperitoneally administered 10 minutes prior to test.
At the beginning of the test the rats were placed in the centre of the squared arena of the MotiTest apparatus. Behaviour of the rats was recorded for one hour. After each run animals were removed and the boxes thoroughly cleaned and dried.
Results were analysed by one way analysis of variance (ANOVA). Tukey test was used for individual comparison. P<0.05 was regarded as significant.

1-cyclohexyl-3,4-dimethyl-8-methoxy-imidazo[1,5-a]pyrido[3,2-e]pyrazine [Example 44a]
pIC50 (PDE10 from pig striatum): 8.52

1-hexyl-8-methoxy-3-methyl-4-methylsulfonylamino-imidazo[1,5-a]pyrido[3,2-e]pyrazine [Example 79a]
pIC50 (PDE10 from pig striatum): 7.96

1-propyl-3,4-dimethyl-imidazo[1,5-a]pyrido[3,2-e]pyrazine [Example 52a]
pIC50 (PDE10 from pig striatum): 7.28

3,4-dimethyl-1-hexyl-8-methoxy-imidazo[1,5-a]pyrido[3,2-e]pyrazine [Example 45a]
pIC50 (PDE10 from pig striatum): 7.28

3,4-dimethyl-8-(piperidin-1-yl)-methoxy-1-propyl-imidazo[1,5-a]pyrido[3,2-e]pyrazine [Example 55a]
pIC50 (PDE10 from pig striatum): 7.85
dose that significantly reversed MK-801-induced hyperactivity (MK-801-induced psychosis): 30 mg/kg
dose that significantly reversed MK-801-induced stereotyped sniffing (MK-801-induced psychosis): 30 mg/kg

3,4-dimethyl-8-methoxy-1-(2-chlorophenyl)-imidazo[1,5-a]pyrido[3,2-e]pyrazine [Example 49a]
pIC50 (PDE10 from pig striatum): 9.00

3,4-dimethyl-8-methoxy-1-(3,3,3-trifluoropropyl)-imidazo[1,5-a]pyrido[3,2-e]pyrazine [Example 42a]
pIC50 (PDE10 from pig striatum): 7.23

3,4-dimethyl-8-methoxy-1-pentyl-imidazo[1,5-a]pyrido[3,2-e]pyrazine [Example 43a]
pIC50 (PDE10 from pig striatum): 7.46

3,4-dimethyl-8-methoxy-1-phenyl-imidazo[1,5-a]pyrido[3,2-e]pyrazine dihydrochloride [Example 48a]
pIC50 (PDE10 from pig striatum): 8.15

3-methyl-4-methylsulfonylamino-1-propyl-imidazo[1,5-a]pyrido[3,2-e]pyrazin-8-ol [Example 86a]
pIC50 (PDE10 from pig striatum): 7.64

4-amino-1-(4-fluoro-phenyl)-8-methoxy-3-methyl-imidazo[1,5-a]pyrido[3,2-e]pyrazine [Example 12b]
pIC50 (PDE10 from pig striatum): 8.22

4-amino-1-hexyl-8-methoxy-3-methyl-imidazo[1,5-a]pyrido[3,2-e]pyrazine [Example 7b]
pIC50 (PDE10 from pig striatum): 7.32

4-amino-8-methoxy-3-methyl-1-phenethyl-imidazo[1,5-a]pyrido[3,2-e]pyrazine [Example 9b]
pIC50 (PDE10 from pig striatum): 7.42

4-amino-8-methoxy-3-methyl-1-propyl-imidazo[1,5-a]pyrido[3,2-e]pyrazine [Example 1b]
dose that significantly reversed MK-801-induced hyperactivity (MK-801-induced psychosis): ≥ 10 mg/kg
dose that significantly reversed MK-801-induced stereotyped sniffing (MK-801-induced psychosis): ≥ 10 mg/kg

4-azido-8-methoxy-3-methyl-1-propyl-imidazo[1,5-a]pyrido[3,2-e]pyrazine [Example 31a]
pIC50 (PDE10 from pig striatum): 6.77

4-chloro-3-methyl-1-propyl-imidazo[1,5-a]pyrido[3,2-e]pyrazin-8-ol [Intermediate A25]
pIC50 (PDE10 from pig striatum): 7.20

4-chloro-8-difluoromethoxy-3-methyl-1-propyl-imidazo[1,5-a]pyrido[3,2-e]pyrazine [Intermediate A28]
pIC50 (PDE10 from pig striatum): 8.10

4-difluoromethoxy-3-methyl-1-propyl-imidazo[1,5-a]pyrido[3,2-e]pyrazine-8-ol [Example 59a]
pIC50 (PDE10 from pig striatum): 7.96

4-ethylsulfonylamino-8-methoxy-3-methyl-1-propyl-imidazo[1,5-a]pyrido[3,2-e]pyrazine [Example 71a]
pIC50 (PDE10 from pig striatum): 6.90

4-isopropylsulfonylamino-8-methoxy-3-methyl-1-propyl-imidazo[1,5-a]pyrido[3,2-e]pyrazine [Example 75a]
pIC50 (PDE10 from pig striatum): 7.11

8-difluoromethoxy-3,4-dimethyl-1-propyl-imidazo[1,5-a]pyrido[3,2-e]pyrazine [Example 54a]
pIC50 (PDE10 from pig striatum): 7.74

8-difluoromethoxy-3-methyl-4-methylsulfonylamino-1-propyl-imidazo[1,5-a]pyrido[3,2-e]pyrazine [Example 87a]
pIC50 (PDE10 from pig striatum): 7.82

8-methoxy-3-methyl-1-phenethyl-4-methylsulfonylamino-imidazo[1,5-a]pyrido[3,2-e]pyrazine [Example 80a]
pIC50 (PDE10 from pig striatum): 7.43

8-methoxy-3-methyl-1-propyl-4-trifluoromethylsulfonylamino-imidazo[1,5-a]pyrido[3,2-e]pyrazine [Example 73a]
pIC50 (PDE10 from pig striatum): 7.72

8-methoxy-3-methyl-1-propyl-4-ureido-imidazo[1,5-a]pyrido[3,2-e]pyrazine [Example 67a]
pIC50 (PDE10 from pig striatum): 7.08

8-methoxy-3-methyl-4-(3-isopropyl-ureido)-1-propyl-imidazo[1,5-a]pyrido[3,2-e]pyrazine [Example 68a]
pIC50 (PDE10 from pig striatum): 6.85

8-methoxy-3-methyl-4-(3-methyl-ureido)-1-propyl-imidazo[1,5-a]pyrido[3,2-e]pyrazine [Example 66a]
pIC50 (PDE10 from pig striatum): 6.12

8-methoxy-3-methyl-5-oxo-1-propyl-imidazo[1,5-a]pyrido[3,2-e]pyrazine [Example 60a]
pIC50 (PDE10 from pig striatum): 7.64

8-methoxy-4-(methoxycarbonyl-methyl-amino)-3-methyl-1-propyl-imidazo[1,5-a]pyrido[3,2-e]pyrazine [Example 65a]
pIC50 (PDE10 from pig striatum): 6.25

CCCc1nc(C)cn1-c1ccc2nc(N)c3c(C)nc(CCC)n3c2n1 [Example 6b, 4-amino-3-methyl-1-propyll-8-(2-propyl-4-methyl-imidazol-1-yl)-imidazo[1,5-a]pyrido[3,2-e]pyrazine]
pIC50 (PDE10 from pig striatum): 9.00
melting point: 215 to 221 °C

CCCc1ncc2c(C)nc3ccc(OC)nc3n12 [Example 53a]
pIC50 (PDE10 from pig striatum): 7.37

CCc1nc(C)cn1-c1ccc2nc(C)c3c(C)nc(CC)n3c2n1 [Example 57a]
pIC50 (PDE10 from pig striatum): 7.96
melting point: 73 to 75 °C

CCc1nc(C)c2n1-c1nc(OC)ccc1NC2 [Example 93a, 1-ethyl-8-methoxy-3-methyl-4,5-dihydro-imidazo[1,5-a]pyrido[3,2-e]pyrazine]
melting point: 139 to 142 °C

COc1ccc2nc(Cl)c3c(C)nc(C4CCCCC4)n3c2n1 [Intermediate A4]
pIC50 (PDE10 from pig striatum): 8.70
melting point: 211 to 213 °C

CCCCCCc1nc(C)c2c(Cl)nc3ccc(OC)nc3n12 [Intermediate A5]
pIC50 (PDE10 from pig striatum): 7.15
melting point: 115 to 117 °C

CCCCCc1nc(C)c2c(Cl)nc3ccc(OC)nc3n12 [Intermediate A6]
pIC50 (PDE10 from pig striatum): 7.25
melting point: 110.5 to 113 °C

COc1ccc2nc(Cl)c3c(C)nc(CCC(F)(F)F)n3c2n1 [Intermediate A7]
pIC50 (PDE10 from pig striatum): 7.47
melting point: 149 to 153 °C

COc1ccc2nc(Cl)c3c(C)nc(-c4ccccc4)n3c2n1 [Intermediate A9]
pIC50 (PDE10 from pig striatum): 8.40
melting point: 240 to 242 °C

CCCc1nc(C)c2c(Cl)nc3cccnc3n12 [Intermediate A12]
pIC50 (PDE10 from pig striatum): 7.42
melting point: 138 to 140 °C

CCCc1ncc2c(Cl)nc3ccc(OC)nc3n12 [Intermediate A13]
pIC50 (PDE10 from pig striatum): 7.28
melting point: 153 to 155 °C

COc1ccc2nc(Cl)c3cnc(C(C)C)n3c2n1 [Intermediate A14]
pIC50 (PDE10 from pig striatum): 6.89
melting point: 162 to 164 °C

CCCc1nc(C)c2c(Cl)nc3ccc(C)nc3n12 [Intermediate A19]
pIC50 (PDE10 from pig striatum): 8.05
melting point: 99 to 101 °C

CCc1nc(C)c2c(Cl)nc3ccc(N(CC)CC)nc3n12 [Intermediate A20]
pIC50 (PDE10 from pig striatum): 7.96
melting point: 145 to 150 °C

CCCc1nc(C)c2c(Cl)nc3ccc(N4CCCCC4)nc3n12 [Intermediate A21]
pIC50 (PDE10 from pig striatum): 8.30

CCc1nc(C)c2c(Cl)nc3ccc(N4CCN(C)CC4)nc3n12 [Intermediate A22]
pIC50 (PDE10 from pig striatum): 7.28
melting point: 283 to 285 °C

CCc1nc(C)cn1-c1ccc2nc(Cl)c3c(C)nc(CC)n3c2n1 [Intermediate A23]
pIC50 (PDE10 from pig striatum): 8.52
melting point: 138 to 141 °C

CCCc1nc(C)cn1-c1ccc2nc(Cl)c3c(C)nc(CCC)n3c2n1 [Intermediate A24]
pIC50 (PDE10 from pig striatum): 8.70
melting point: 134 to 136 °C

CCc1nc(C)c2c(Br)nc3ccc(O)nc3n12 [Intermediate A26]
pIC50 (PDE10 from pig striatum): 7.34
melting point: > 360 °C
